From patent US11278595B2, “Peptides comprising non-natural amino acids and methods of making and using the same” (Longevity Biotech, Inc., priority 2013, dated 2022)
Numbered stars: 1 amine (or outer) side, 2 acyl side, 3 side chain; on linkers, the order of the positions; unused ones are H or OH. Square brackets hold non-standard residues; d marks the D form. Peptide text beside a SMILES is read from it. ξ: configuration not given here. ξ(4-Aminopyrrolidine-3-CO) = O=C(C1CNCC1N[*:1])[*:2]; X3 = O=C(C1CCCC1N[*:1])[*:2]; β3hK = NCCCC[C@H](N)CC(=O)O; βAla = NCCC(=O)O

Legend:
[1] = test system: protease; experiment: In vitro protease stability assay; type: in vitro ADME; settings: FIG. 1; compared to Ro 25-1553 (one lactam bridge)
Experimental: In Vitro Stability Assay: Stock solutions of the both the naturally occurring peptides as well as peptide analogs are prepared at a concentration of 250 μM (based on UV absorbance) in a 2% DMSO solution of appropriate buffering conditions. Standard solution of proteinase K in addition to other common animal proteases (i.e. Cathepsins, Trypsins, dipeptidyl peptidase IV and chymotrypsin) were prepared at the following concentrations in appropriate buffers separately: Protease K: 250 μg/ml, Chymotrypsin 25 μg/mL and DPP-IV 40 units/ml. For a Protease K assay, the following recipe was followed: 1 μL enzyme was added to 5 μL peptide analog in 44 μL PBS. […] 50 μL of the resulting quenched reaction are then injected onto an analytical reverse phase HPLC, and the amount of starting peptide present quantified by integration of the appropriate chromatogram peak via absorbance at either 220 or 280 nm. […] Half-lives are determined by fitting time dependent peptide concentration to an exponential decay using GraphPad Prism. Samples for some time points will be analyzed by mass spectrometery, and the products observed are used to identify amide bonds cleaved in the course of the reaction. The relative stability enhancement is determined through the comparison of the various analogs with its naturally occurring peptide counterpart. […]

[2] = test system: anti-CD3 stimulated naïve CD4+CD25− T cells; experiment: Inhibition assay of suppressive function of Treg from treated donor mice; type: cell-based; settings: compared to PBS Treg populations; 1:1 Treg to responder ratio; donors injected daily/5 days/i.p.
Experimental: Immediately following the final dose, mice were sacrificed, and single-cell suspensions were prepared from inguinal lymph nodes and spleens. CD4+ T cell populations from spleens and lymph nodes were enriched by negative selection with CD4-enrichment columns (R&D Systems, Minneapolis, Minn.), followed by CD25-PE positive selection with AutoMACS (Miltenyi Biotec, Auburn, Calif.). As determined by flow cytometric analysis, populations of Tregs and Teffs were consistently […] using this method (12). T cells were cultured in complete RPMI 1640 (RPMI 1640 [Invitrogen, Carlsbad, Calif.] supplemented with 10% FBS, 2 mM L-gluta-mine, 25 mM HEPES, 1 mM sodium pyruvate, […] nonessential amino acids, […] 2-ME, 100 U/ml penicillin, and […] streptomycin [Mediatech, Manassas, Va.]) in the presence of anti-CD3 (145-2C11; BD Pharmingen, San Diego, Calif.), 4YSyn, or N-4YSyn. […]
To assess whether VIP, LBT-V101 (SEQ ID NO: 22), LBT-V218 (SEQ ID NO: 18) and PBS treated splenocytes (SPC) suppress effector T cell proliferative responses, we evaluated SPC co-cultures from VIP-treated donors for their proliferative capacity in the presence of either anti-CD3. […] To test this hypothesis, we evaluated CD4+CD25+CD62Llow Treg isolated from naïve and VIP-treated mice for their capacity to inhibit CD3-mediated proliferation of CD4+CD25− naïve T cells. […]

[3] = test system: dopaminergic neurons (TH+/Nissl+) in the SN; experiment: Parkinson's disease (MPTP) model, adoptive transfer of splenocytes from drug-treated donors; type: in vivo; settings: MPTP mice; donors 15 ug/day/5 days; FIG. 5
Experimental: Parkinson's Disease (PD) Model (not prophetic): Male C57/BL6 mice, 8-12 w old, housed in the IACUC approved housing were administered an analog described herein as well as a pharmaceutically acceptable carrier for five days at a dose between (0.1 nM and 100 nM). Thereafter, SPC and Tregs from the mice are harvested and then transferred to another set of MPTP intoxicated mice using the following protocol.
Immediately following the final dose, mice were sacrificed, and single-cell suspensions were prepared from inguinal lymph nodes and spleens. […] As determined by flow cytometric analysis, populations of Tregs and Teffs were consistently […] using this method (12). […]
Mice were postmortem transcardially perfused with PBS, followed by 4% para-formaldehyde (Sigma-Aldrich). […] Fluorojade C (FJ-C) staining (Millipore, Billerica, Mass.) was performed on adjacent sections, according to the manufacturer's protocol, to assess de-generating neurons and was quantified using ImageJ. Overall, dopaminergic neuron survival was assessed 7 d following MPTP intoxication and resolution of cell death processes with polyclonal Abs to mouse tyrosine hydroxylase (TH; 1:1000; EMD Chemicals/Calbiochem, San Diego, Calif.) and were counterstained for Nissl substance by thionin staining. […] Quantitation of striatal TH (1:500; EMD Chemicals/Calbiochem, Gibbstown, N.J.) was performed by densitometric analysis. […]

| Molecule | in-vitro protease stability [1] | suppressive capacity of Treg on T cell proliferation [2] | neuroprotection after adoptive transfer of splenocytes from drug-treated donors [3] |
| --- | --- | --- | --- |
| CC(=O)N[C@@H](Cc1c[nH]cn1)C(=O)NC1CCCC1C(=O)N[C@@H](CC(=O)O)C(=O)N[C@@H](C)C(=O)NC1CCCC1C(=O)N[C@@H](Cc1ccccc1)C(=O)N[C@H](C(=O)N[C@@H](CCC(=O)O)C(=O)N[C@@H](CC(N)=O)C(=O)N[C@@H](Cc1ccc(O)cc1)C(=O)N[C@H](C(=O)N[C@@H](CCCCN)C(=O)N[C@@H](CC(C)C)C(=O)N[C@@H](CCCNC(=N)N)C(=O)N[C@@H](CCCCN)C(=O)N[C@@H](CCC(N)=O)C(=O)N[C@@H](CC(C)C)C(=O)N[C@@H](C)C(=O)N[C@@H](C)C(=O)NC1CNCC1C(=O)N[C@@H](CCCCN)C(=O)N[C@@H](Cc1ccc(O)cc1)C(=O)NC1CCCC1C(=O)N[C@@H](CC(N)=O)C(=O)N[C@@H](CC(=O)O)C(=O)N[C@@H](CC(C)C)C(=O)N[C@@H](CCCCN)CC(=O)N[C@@H](CCCCN)C(=O)NCC(=O)NCCC(=O)N[C@H](C(N)=O)[C@@H](C)O)[C@@H](C)O)[C@@H](C)O (stereo partly drawn) [LBT-V208, Ac-HxDAxFTENYTKLRKQLAAzKYxNDLkKGgT] (Ac-H[X3]DA[X3]FTENYTKLRKQLAA[ξ(4-Aminopyrrolidine-3-CO)]KY[X3]NDL[β3hK]KG[βAla]T-NH2) | stability is greater | – | – |
| HSDAVFTDNYTRLRKQMAVKKYLNSILN [VIP] | – | enhanced suppressive capacity | neuroprotective |
